Assay results from patent US20190062260A1, “ANTIMICROBIAL COMPOSITIONS, METHODS OF MAKING, AND METHODS OF USE” (priority 2017, published 2019).

Assay: Degradation of compound and release of acrolein, tracked via NMR spectroscopy
Format: physicochemical
Conditions: 50 mM in deuterated water; for % acrolein generated pH 3, 3 days / % degraded pH 3, 3 days: pH 3 (adjusted with deuterium chloride); for % acrolein generated pH 3, 3 days / % degraded pH 3, 3 days / % acrolein generated pH 7, 7 days / % degraded pH 7, 7 days: 25 degrees Celsius
Protocol: Degradation of Compound and Release of Acrolein
n=3, X as defined in the table. Measured at 25 degrees Celsius (room temperature), tracked via NMR spectroscopy. All compounds were prepared at 50 mM in deuterated water, pH adjusted with deuterium chloride.
n=3, X is Br. Measured at 25 or 70 degrees Celsius, tracked via NMR spectroscopy. All compounds were prepared at 50 mM in deuterated water at pH 7. Measurements were made after 4 hours.

Row | Compound | % acrolein generated 25° C. (25° C., pH 7, after 4 hours) [%] | % degraded 25° C. (25° C., pH 7, after 4 hours) [%] | % acrolein generated 70° C. (70° C., pH 7, after 4 hours) [%] | % degraded 70° C. (70° C., pH 7, after 4 hours) [%] | % acrolein generated pH 3, 3 days [%] | % degraded pH 3, 3 days [%] | % acrolein generated pH 7, 7 days [%] | % degraded pH 7, 7 days [%]
1 | COCCOCCOCCOC(CCBr)OCCOCCOCCOC [Compound 3] | 0 | 0 | 40 | 85 | 8 | 100 | 12 | 95
2 | COCCOCCOCCOC(CCCl)OCCOCCOCCOC [Compound 1] | – | – | – | – | 1 | 50 | 0 | 0
